Columns and labels:
Type in all cases: in vivo
[1] = system: Diabrotica balteata (Corn Root Worm); assay: Example B1: Diabrotica balteata (corn root worm), sprayed maize sprouts; conditions: 96 h, application rate 200 ppm, L2 larvae, 4 days after infestation, read-out: control in at least one of the two categories (mortality or growth inhibition)
Protocol: Example B1: Diabrotica balteata (Corn Root Worm)
Maize sprouts placed onto an agar layer in 24-well microtiter plates were treated with aqueous test solutions prepared from 10′000 ppm DMSO stock solutions by spraying. After drying, the plates were infested with L2 larvae (6 to 10 per well). The samples were assessed for mortality and growth inhibition in comparison to untreated samples 4 days after infestation.

[2] = system: Chilo suppressalis (Striped Rice Stemborer); assay: Example B4: Chilo suppressalis (striped rice stemborer), artificial diet; conditions: 144 h, application rate 200 ppm, L2 larvae, 6 days after infestation, read-out: control in at least one of the three categories (mortality, anti-feedant or growth inhibition)
Protocol: Example B4: Chilo suppressalis (Striped Rice Stemborer)
24-well microtiter plates with artificial diet were treated with aqueous test solutions prepared from 10′000 ppm DMSO stock solutions by pipetting. After drying, the plates were infested with L2 larvae (6-8 per well). The samples were assessed for mortality, anti-feeding effect, and growth inhibition in comparison to untreated samples 6 days after infestation. Control of Chilo suppressalis by a test sample is given when at least one of the categories mortality, anti-feedant effect, and growth inhibition is higher than the untreated sample.

[3] = system: Plutella xylostella (Diamond Back Moth); assay: Example B5: Plutella xylostella (diamond back moth), artificial diet, 24-well; conditions: 192 h, application rate 200 ppm, eggs, 8 days after infestation, read-out: control in at least one of the two categories (mortality or growth inhibition)
Protocol: Example B5: Plutella xylostella (Diamond Back Moth)
24-well microtiter plates with artificial diet were treated with aqueous test solutions prepared from 10′000 ppm DMSO stock solutions by pipetting. After drying, Plutella eggs were pipetted through a plastic stencil onto a gel blotting paper and the plate was closed with it. The samples were assessed for mortality and growth inhibition in comparison to untreated samples 8 days after infestation.

[4] = system: Spodoptera littoralis (Egyptian Cotton Leaf Worm); assay: Example B9: Spodoptera littoralis (Egyptian cotton leaf worm), sprayed cotton leaf discs; conditions: foliar, 72 h, application rate 200 ppm, L1 larvae, 3 days after infestation, read-out: control in at least one of the three categories (mortality, anto-feedant or growth inhibition)

CC(NC(=O)c1cc(C(F)(F)F)nc(C2(C#N)CC2)c1)c1nc(Br)nn1-c1ccc(C#N)cn1 (centres unmarked) [Compound P2, N-[1-[5-bromo-2-(5-cyano-2-pyridyl)-1,2,4-triazol-3-yl]ethyl]-2-(1-cyanocyclopropyl)-6-(trifluoromethyl)pyridine-4-carboxamide]
≥ 80%: percent control (mortality or growth inhibition) at 200 ppm [1] | percent control (mortality, anti-feedant or growth inhibition) at 200 ppm [2] | percent control (mortality or growth inhibition) at 200 ppm [3] | percent control (mortality, anti-feedant or growth inhibition) at 200 ppm [4]

CC(NC(=O)c1cc(C(F)(F)F)cc(C2(C#N)CC2)c1)c1nc(Br)nn1-c1ncc(OCC(F)F)cn1 (centres unmarked) [Compound P3, N-[1-[5-bromo-2-[5-(2,2-difluoroethoxy)pyrimidin-2-yl]-1,2,4-triazol-3-yl]ethyl]-3-(1-cyanocyclopropyl)-5-(trifluoromethyl)benzamide]
≥ 80%: percent control (mortality or growth inhibition) at 200 ppm [1] | percent control (mortality, anti-feedant or growth inhibition) at 200 ppm [2] | percent control (mortality or growth inhibition) at 200 ppm [3] | percent control (mortality, anti-feedant or growth inhibition) at 200 ppm [4]

CC(NC(=O)c1cc(C(F)(F)F)cc(C(F)(F)C2CC2)c1)c1nc(Br)nn1-c1ncc(OCC(F)(F)F)cn1 (centres unmarked) [Compound P9, N-[1-[5-bromo-2-[5-(2,2,2-trifluoroethoxy)pyrimidin-2-yl]-1,2,4-triazol-3-yl]ethyl]-3-[cyclopropyl(difluoro)methyl]-5-(trifluoromethyl)benzamide]
≥ 80%: percent control (mortality, anti-feedant or growth inhibition) at 200 ppm [2] | percent control (mortality or growth inhibition) at 200 ppm [3] | percent control (mortality, anti-feedant or growth inhibition) at 200 ppm [4]

CC(NC(=O)c1cc(C(F)(F)F)cc(C2(C#N)CC2)c1)c1nc(Br)nn1-c1ncc(OCC(F)(F)F)cn1 (centres unmarked) [Compound P10, N-[1-[5-bromo-2-[5-(2,2,2-trifluoroethoxy)pyrimidin-2-yl]-1,2,4-triazol-3-yl]ethyl]-3-(1-cyanocyclopropyl)-5-(trifluoromethyl)benzamide]
≥ 80%: percent control (mortality or growth inhibition) at 200 ppm [1] | percent control (mortality, anti-feedant or growth inhibition) at 200 ppm [2] | percent control (mortality or growth inhibition) at 200 ppm [3] | percent control (mortality, anti-feedant or growth inhibition) at 200 ppm [4]

CC(NC(=O)c1cc(C2CC2C(F)(F)F)cc(C(F)(F)F)c1)c1nc(Br)nn1-c1ncc(OCC(F)F)cn1 (centres unmarked) [Compound P13, N-[1-[5-bromo-2-[5-(2,2-difluoroethoxy)pyrimidin-2-yl]-1,2,4-triazol-3-yl]ethyl]-3-(trifluoromethyl)-5-[2-(trifluoromethyl)cyclopropyl]benzamide]
≥ 80%: percent control (mortality or growth inhibition) at 200 ppm [1] | percent control (mortality, anti-feedant or growth inhibition) at 200 ppm [2] | percent control (mortality or growth inhibition) at 200 ppm [3] | percent control (mortality, anti-feedant or growth inhibition) at 200 ppm [4]

CC(NC(=O)c1cc(C(F)(F)F)cc(C(F)(F)C2CC2)c1)c1nc(Br)nn1-c1ncc(OCC(F)F)cn1 (centres unmarked) [Compound P15, N-[1-[5-bromo-2-[5-(2,2-difluoroethoxy)pyrimidin-2-yl]-1,2,4-triazol-3-yl]ethyl]-3-[cyclopropyl(difluoro)methyl]-5-(trifluoromethyl)benzamide]
≥ 80%: percent control (mortality or growth inhibition) at 200 ppm [1] | percent control (mortality, anti-feedant or growth inhibition) at 200 ppm [2] | percent control (mortality or growth inhibition) at 200 ppm [3] | percent control (mortality, anti-feedant or growth inhibition) at 200 ppm [4]

CC(NC(=O)c1cc(C2CC2C(F)(F)F)cc(C(F)(F)F)c1)c1nc(Br)nn1-c1ccc(C#N)cn1 (centres unmarked) [Compound P16, N-[1-[5-bromo-2-(5-cyano-2-pyridyl)-1,2,4-triazol-3-yl]ethyl]-3-(trifluoromethyl)-5-[2-(trifluoromethyl)cyclopropyl]benzamide]
≥ 80%: percent control (mortality or growth inhibition) at 200 ppm [1] | percent control (mortality, anti-feedant or growth inhibition) at 200 ppm [2] | percent control (mortality or growth inhibition) at 200 ppm [3] | percent control (mortality, anti-feedant or growth inhibition) at 200 ppm [4]

CC(NC(=O)c1cc(C(F)(F)F)cc(S(=O)(=O)C(F)(F)F)c1)c1nc(Br)nn1-c1ccc(C#N)cn1 (centres unmarked) [Compound P17, N-[1-[5-bromo-2-(5-cyano-2-pyridyl)-1,2,4-triazol-3-yl]ethyl]-3-(trifluoromethyl)-5-(trifluoromethylsulfonyl)benzamide]
≥ 80%: percent control (mortality or growth inhibition) at 200 ppm [1] | percent control (mortality, anti-feedant or growth inhibition) at 200 ppm [2] | percent control (mortality or growth inhibition) at 200 ppm [3] | percent control (mortality, anti-feedant or growth inhibition) at 200 ppm [4]

CC(NC(=O)c1cc(C2CC2)cc(C(F)(F)F)c1)c1nc(Br)nn1-c1ccc(C#N)cn1 (centres unmarked) [Compound P19, N-[1-[5-bromo-2-(5-cyano-2-pyridyl)-1,2,4-triazol-3-yl]ethyl]-3-cyclopropyl-5-(trifluoromethyl)benzamide]
≥ 80%: percent control (mortality or growth inhibition) at 200 ppm [1] | percent control (mortality, anti-feedant or growth inhibition) at 200 ppm [2] | percent control (mortality or growth inhibition) at 200 ppm [3] | percent control (mortality, anti-feedant or growth inhibition) at 200 ppm [4]

CC(NC(=O)c1cc(C2CC2)nc(C(F)(F)F)c1)c1nc(Br)nn1-c1ccc(C#N)cn1 (centres unmarked) [Compound P20, N-[1-[5-bromo-2-(5-cyano-2-pyridyl)-1,2,4-triazol-3-yl]ethyl]-2-cyclopropyl-6-(trifluoromethyl)pyridine-4-carboxamide]
≥ 80%: percent control (mortality or growth inhibition) at 200 ppm [1] | percent control (mortality, anti-feedant or growth inhibition) at 200 ppm [2] | percent control (mortality or growth inhibition) at 200 ppm [3] | percent control (mortality, anti-feedant or growth inhibition) at 200 ppm [4]

CC(NC(=O)c1cc(C(F)(F)F)cc(C(F)(F)C2CC2)c1)c1nc(Br)nn1-c1ccc(C#N)cn1 (centres unmarked) [Compound P21, N-[1-[5-bromo-2-(5-cyano-2-pyridyl)-1,2,4-triazol-3-yl]ethyl]-3-[cyclopropyl(difluoro)methyl]-5-(trifluoromethyl)benzamide]
≥ 80%: percent control (mortality or growth inhibition) at 200 ppm [1] | percent control (mortality, anti-feedant or growth inhibition) at 200 ppm [2] | percent control (mortality or growth inhibition) at 200 ppm [3] | percent control (mortality, anti-feedant or growth inhibition) at 200 ppm [4]

CC(NC(=O)c1cc(C(F)(F)F)cc(C2(C#N)CC2)c1)c1nc(Br)nn1-c1ccc(OCC(F)(F)F)cn1 (centres unmarked) [Compound P23, N-[1-[5-bromo-2-[5-(2,2,2-trifluoroethoxy)-2-pyridyl]-1,2,4-triazol-3-yl]ethyl]-3-(1-cyanocyclopropyl)-5-(trifluoromethyl)benzamide]
≥ 80%: percent control (mortality, anti-feedant or growth inhibition) at 200 ppm [2] | percent control (mortality or growth inhibition) at 200 ppm [3] | percent control (mortality, anti-feedant or growth inhibition) at 200 ppm [4]

CC(NC(=O)c1cc(C2CC2)cc(C(F)(F)F)c1)c1nc(Br)nn1-c1ccc(OC(F)F)cn1 (centres unmarked) [Compound P25, N-[1-[5-bromo-2-[5-(difluoromethoxy)-2-pyridyl]-1,2,4-triazol-3-yl]ethyl]-3-cyclopropyl-5-(trifluoromethyl)benzamide]
≥ 80%: percent control (mortality or growth inhibition) at 200 ppm [1] | percent control (mortality, anti-feedant or growth inhibition) at 200 ppm [2] | percent control (mortality or growth inhibition) at 200 ppm [3] | percent control (mortality, anti-feedant or growth inhibition) at 200 ppm [4]

CC(NC(=O)c1cc(C2CC2)cc(C(F)(F)F)c1)c1nc(Br)nn1-c1ccc(OCC(F)(F)F)cn1 (centres unmarked) [Compound P28, N-[1-[5-bromo-2-[5-(2,2,2-trifluoroethoxy)-2-pyridyl]-1,2,4-triazol-3-yl]ethyl]-3-cyclopropyl-5-(trifluoromethyl)benzamide]
≥ 80%: percent control (mortality, anti-feedant or growth inhibition) at 200 ppm [2] | percent control (mortality or growth inhibition) at 200 ppm [3]

CC(NC(=O)c1cc(C2CC2(F)F)cc(C(F)(F)F)c1)c1nc(Br)nn1-c1ccc(OCC(F)(F)F)cn1 (centres unmarked) [Compound P29, N-[1-[5-bromo-2-[5-(2,2,2-trifluoroethoxy)-2-pyridyl]-1,2,4-triazol-3-yl]ethyl]-3-(2,2-difluorocyclopropyl)-5-(trifluoromethyl)benzamide]
≥ 80%: percent control (mortality, anti-feedant or growth inhibition) at 200 ppm [2] | percent control (mortality or growth inhibition) at 200 ppm [3]

CC(NC(=O)c1cc(C(F)(F)F)cc(C(C)(C)C#N)c1)c1nc(Br)nn1-c1ccc(OCC(F)(F)F)cn1 (centres unmarked) [Compound P41, N-[1-[5-bromo-2-[5-(2,2,2-trifluoroethoxy)-2-pyridyl]-1,2,4-triazol-3-yl]ethyl]-3-(1-cyano-1-methyl-ethyl)-5-(trifluoromethyl)benzamide]
≥ 80%: percent control (mortality, anti-feedant or growth inhibition) at 200 ppm [2] | percent control (mortality or growth inhibition) at 200 ppm [3]

From patent US20220167618A1, “PESTICIDALLY ACTIVE AZOLE-AMIDE COMPOUNDS” (SYNGENTA CROP PROTECTION AG, priority 2019, published 2022)
